Laboratory results taken from patent publication US10568931B2, “Pharmaceutical composition comprising ginseng extracts for prevention and treatment of ophthalmological diseases” (GINTONIN KU BIOTECH Co., Ltd., priority 2017, dated 2020).

Columns and labels:
[1] = tested on: intracytoplasmic calcium in HCE-T cells; experiment: Fura 2 fluorescence measurement of [Ca^2+]i in HCE-T cell suspension; type: cell-based, human; conditions: LPA1/3 receptor antagonist
Method: Particularly, according to a method such as Jrgensen and the like, HCE-T cells (1 to 2×10^6 cell/ml) were mixed in […] Fura 2-AM while being shaken for 30 minutes at a 37° C. incubator by using a Ca^2+-containing buffer (pH 7.4) consisting of NaCl 120 mM, KCl 5 mM, MgCl2 1 mM, CaCl2 1.5 mM, glucose 10 mM, and HEPES 25 mM and a Ca^2+-free buffer (pH 7.4) consisting of NaCl 120 mM, KCl 5 mM, MgCl2 1 mM, EGTA 0.2 mM, glucose 10 mM, and HEPES 25 mM, and an excessive amount of fura-2 was removed by washing the cells with the Ca^2+ buffer or the Ca^2+-free buffer three times.
[Ca^2+]i was estimated in the Fura 2-loaded cells by using a RF-5300PC intracellular ion measurement system (Shimadzu Corporation, Japan). […] Excitation wavelengths were alternated between 340 and […] under a computer control and emission was detected at 510. […]
A measured ratio value of 340:380 was converted to a value of [Ca^2+]i by using Equation of Hounsell and the like (Hounsell, E. F., Davies, M. J., and Smith, K. D. (1997) Protein protocol handbook, Humanna press, Totawa, 803-804). […] Further, Sf380 and Sb380 are fluorescence intensity at 380 nm when adding digitonin and EGTA and the ratios are maximum and minimum values when these values are indicated (Grynkiewicz, G., M. Poenie, and R. Y. Tsien. (1985) J Biol Chem 260: 3440-3450).

[2] = tested on: human corneal epithelial-T (HCE-T) cells; experiment: Scratch wound healing / cell migration in HCE-T cells; type: cell-based; conditions: Ki16425 treated before gintonin
Method: HCE-T cells (RCB-2280) were purchased from a Riken cell bank. The HCE-T cells were cultured in a medium in which 10% FCS was contained in a DMEM-Ham F12 (1:1) medium (Araki-sasaki et al., Investigative Ophthalmology and Visual Science 36, 614-621, 1995; Arakisasaki et al., J cellular Physiol. 182, 189-195, 2000).
HCE-T (2.5×10^5/well) was planted in a 24-well plate and cultured for 24 hrs and then cultured for 6 hrs in a 0.2% FBS-containing DMEM medium again. The wound was made by drawing a line through the center of each well where cells grew by using a […] pipette tip and then the floating cells were washed twice with a 1% FBS-containing DMEM medium to be removed.
The cells were treated with 0.03 to 1 μg/ml of gintonin and cultured and compared with cells without treating gintonin by observing and photographing (100×) cell shapes before and after gintonin treatment of each well with an inverted fluorescence microscope (AxioVert200; Carl Zeiss).
For the analysis of the degree of cell growth in a part wounded with the pipette tip, an area of the wound part where cells were not recovered was measured using AxioVision.

SMILES: Cc1noc(-c2ccc(CSCCC(=O)O)cc2)c1NC(=O)OC(C)c1ccccc1Cl (centres unmarked) [Ki16425]
- Effect of antagonist on increase in intracytoplasmic calcium by gintonin [1]: blocked
- Effect of antagonist pretreatment on gintonin-promoted cell migration [2]: the action of the gintonin is inhibited
